Data taken from US10246456B2, “IRAK4 inhibiting agents” (BIOGEN MA INC., priority 2014, dated 2019).

biological target: IRAK4 (Homo sapiens (Human), UniProt Q9NWZ3); experiment: IRAK-4 AlphaScreen biochemical kinase assay; settings: 1 nM IRAK4, 1 mM ATP, 3.5 h at RT
How it was run: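 AlphaScreen read-out: streptavidin beads bind the biotinylated peptide and protein A beads bind the anti-phosphothreonine antibody, so energy transfer reports phosphorylation of the peptide. The kinase is human IRAK-4.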

IRAK4, sequence (Q9NWZ3 whole entry, species assumed): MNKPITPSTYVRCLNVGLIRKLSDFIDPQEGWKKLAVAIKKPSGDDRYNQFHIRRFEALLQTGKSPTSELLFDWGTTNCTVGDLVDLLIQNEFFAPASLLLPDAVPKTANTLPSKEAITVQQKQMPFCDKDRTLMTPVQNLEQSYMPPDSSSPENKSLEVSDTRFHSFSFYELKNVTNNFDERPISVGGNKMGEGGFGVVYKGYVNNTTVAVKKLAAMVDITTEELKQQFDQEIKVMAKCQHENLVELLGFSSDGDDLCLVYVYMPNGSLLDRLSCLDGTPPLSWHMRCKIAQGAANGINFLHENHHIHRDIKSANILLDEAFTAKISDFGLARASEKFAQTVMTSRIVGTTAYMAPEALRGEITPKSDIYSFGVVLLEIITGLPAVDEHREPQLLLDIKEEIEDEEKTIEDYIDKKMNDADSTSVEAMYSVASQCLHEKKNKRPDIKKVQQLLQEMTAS

Compound | IC50
Cc1cccc(-n2ncc3ccc(-c4cccc(C5(C#N)CCC5)n4)cc32)n1 [Example 304, 1-(6-(1-(6-methylpyridin-2-yl)-1H-indazol-6-yl)pyridin-2-yl)cyclobutanecarbonitrile] | < 100 nM
Cc1ccc(Cl)c(-n2ncc3ccc(-c4cncc(N)c4)cc32)n1 [Example 38, 5-(1-(3-chloro-6-methylpyridin-2-yl)-1H-indazol-6-yl)pyridin-3-amine] | 1000 to 10000 nM
Cc1cccc(-n2ncc3ccc(-c4cccc5c4CCNC5)cc32)n1 [Example 15, 5-(1-(6-methylpyridin-2-yl)-1H-indazol-6-yl)-1,2,3,4-tetrahydroisoquinoline] | 1000 to 10000 nM
NC(c1cccc(-c2ccc3cnn(-c4cccc(C(F)(F)F)n4)c3c2)n1)C1CC1 (centres unmarked) [Example 128, cyclopropyl(6-(1-(6-(trifluoromethyl)pyridin-2-yl)-1H-indazol-6-yl)pyridin-2-yl)methanamine] | < 100 nM
C/C(=N\O)c1cccc(-c2cc(N(C)C)c3cnn(-c4cccc(C)n4)c3c2)n1 [Example 234, (E)-1-(6-(4-(dimethylamino)-1-(6-methylpyridin-2-yl)-1H-indazol-6-yl)pyridin-2-yl)ethanone oxime] | 100 to 1000 nM
COCCOc1cc(-c2cccc([C@H](N)C(F)CCO)n2)cc2c1cnn2-c1cccc(CO)n1 (stereo partly drawn) [Example 431, (4S)-4-amino-3-fluoro-4-(6-(1-(6-(hydroxymethyl)pyridin-2-yl)-4-(2-methoxyethoxy)-1H-indazol-6-yl)pyridin-2-yl)butan-1-ol] | 100 to 1000 nM
CCC[C@H](N)c1cccc(-c2ccc3cnn(-c4cccc(CO)c4)c3c2)n1 [Example 402, (S)-(3-(6-(6-(1-aminobutyl)pyridin-2-yl)-1H-indazol-1-yl)phenyl)methanol] | < 100 nM
CCCC1(N)CCCc2ccc(-c3ccc4cnn(-c5cccc(CO)n5)c4c3)nc21 (centres unmarked) [Example 421, (6-(6-(8-amino-8-propyl-5,6,7,8-tetrahydroquinolin-2-yl)-1H-indazol-1-yl)pyridin-2-yl)methanol] | < 100 nM
CCC[C@@H](c1cccc(-c2ccc3cnn(-c4cccc(CO)n4)c3c2)n1)N(C)C [Example 566, (S)-(6-(6-(6-(1-(dimethylamino)butyl)pyridin-2-yl)-1H-indazol-1-yl)pyridin-2-yl)methanol] | 100 to 1000 nM
N#Cc1ccnc(-n2ncc3ccc(-c4cncc(N)c4)cc32)n1 [Example 37, 2-(6-(5-aminopyridin-3-yl)-1H-indazol-1-yl)pyrimidine-4-carbonitrile] | < 100 nM
CCC[C@H](N)c1cccc(-c2cc(-c3cc(C)n(C)n3)c3cnn(-c4cccc(CO)n4)c3c2)n1 [Example 389, (S)-(6-(6-(6-(1-aminobutyl)pyridin-2-yl)-4-(1,5-dimethyl-1H-pyrazol-3-yl)-1H-indazol-1-yl)pyridin-2-yl)methanol] | < 100 nM
CCOc1cc(-c2cccc([C@@H](N)c3ccccc3)n2)cc2c1cnn2-c1cccc(CO)n1 [Example 440, (S)-(6-(6-(6-(amino(phenyl)methyl)pyridin-2-yl)-4-ethoxy-1H-indazol-1-yl)pyridin-2-yl)methanol] | < 100 nM

Other lines, results leading:

IC50 | Compound
< 100 nM | CC(N)c1cccc(-c2ccc3cnn(-c4cccc(C5CC5)n4)c3c2)n1 (centres unmarked) [Example 119, 1-(6-(1-(6-cyclopropylpyridin-2-yl)-1H-indazol-6-yl)pyridin-2-yl)ethanamine]
1000 to 10000 nM | CC(=O)NCc1cc(-c2cccc(C(C)N)n2)cc2nn(-c3cccc(C)n3)cc12 (centres unmarked) [Example 217, N-((6-(6-(1-aminoethyl)pyridin-2-yl)-2-(6-methylpyridin-2-yl)-2H-indazol-4-yl)methyl)acetamide]
100 to 1000 nM | CNC(C)c1cccc(-c2ccc3cnn(-c4cccc(C)n4)c3c2)n1 (centres unmarked) [Example 116, N-methyl-1-(6-(1-(6-methylpyridin-2-yl)-1H-indazol-6-yl)pyridin-2-yl)ethanamine]
< 100 nM | Cc1cccc(-n2ncc3ccc(-c4cccc(C(N)C(=O)O)n4)cc32)n1 (centres unmarked) [Example 273, 2-amino-2-(6-(1-(6-methylpyridin-2-yl)-1H-indazol-6-yl)pyridin-2-yl)acetic acid]
< 100 nM | NCc1cc(N)cc(-c2ccc3cnn(-c4cccc(C(F)(F)F)n4)c3c2)n1 [Example 80, 2-(aminomethyl)-6-(1-(6-(trifluoromethyl)pyridin-2-yl)-1H-indazol-6-yl)pyridin-4-amine]
< 100 nM | COC(=O)CC(N)c1cccc(-c2ccc3cnn(-c4cccc(C)n4)c3c2)n1 (centres unmarked) [Example 261, methyl 3-amino-3-(6-(1-(6-methylpyridin-2-yl)-1H-indazol-6-yl)pyridin-2-yl)propanoate]
< 100 nM | C[C@H](N)c1cccc(-c2cc(-c3cc(C(F)(F)F)[nH]n3)c3cnn(-c4cccc(CO)n4)c3c2)n1 [Example 383, (S)-(6-(6-(6-(1-aminoethyl)pyridin-2-yl)-4-(5-(trifluoromethyl)-1H-pyrazol-3-yl)-1H-indazol-1-yl)pyridin-2-yl)methanol]
< 100 nM | Nc1cccc(-c2ccc3cnn(-c4cccc(C(F)(F)F)n4)c3c2)c1 [Example 25, 3-(1-(6-(trifluoromethyl)pyridin-2-yl)-1H-indazol-6-yl)aniline]
< 100 nM | CC[C@H](N)c1cccc(-c2ccc3cnn(-c4cccc(CO)n4)c3c2)n1 [Example 318, (S)-(6-(6-(6-(1-aminopropyl)pyridin-2-yl)-1H-indazol-1-yl)pyridin-2-yl)methanol]
100 to 1000 nM | CCc1cc(-c2cccc(C(C)N)n2)cc2c1cnn2-c1cccc(C)n1 (centres unmarked) [Example 109, 1-(6-(4-ethyl-1-(6-methylpyridin-2-yl)-1H-indazol-6-yl)pyridin-2-yl)ethanamine]
< 100 nM | Cc1cccc(-n2ncc3c(N)cc(-c4cccc(C(C)N)n4)cc32)n1 (centres unmarked) [Example 100, 6-(6-(1-aminoethyl)pyridin-2-yl)-1-(6-methylpyridin-2-yl)-1H-indazol-4-amine]
< 100 nM | CC(N)c1cccc(-c2cc(Cl)c3cnc(-c4cccc(C(F)(F)F)n4)n3c2)n1 (centres unmarked) [Example 311, 1-(6-(8-chloro-3-(6-(trifluoromethyl)pyridin-2-yl)imidazo[1,5-a]pyridin-6-yl)pyridin-2-yl)ethanamine]
< 100 nM | C=C(C)c1cc(-c2cccc(C(C)N)n2)cc2c1cnn2-c1cccc(C)n1 (centres unmarked) [Example 108, 1-(6-(1-(6-methylpyridin-2-yl)-4-(prop-1-en-2-yl)-1H-indazol-6-yl)pyridin-2-yl)ethanamine]
< 100 nM | CCCC(N)c1cccc(-c2ccc3cnn(-c4cccc(C(F)(F)F)n4)c3c2)n1 (centres unmarked) [Example 268, 1-(6-(1-(6-(trifluoromethyl)pyridin-2-yl)-1H-indazol-6-yl)pyridin-2-yl)butan-1-amine]
< 100 nM | Cc1cccc(-n2ncc3ccc(-c4ccc(F)c(C(C)N)n4)cc32)n1 (centres unmarked) [Example 242, 1-(3-fluoro-6-(1-(6-methylpyridin-2-yl)-1H-indazol-6-yl)pyridin-2-yl)ethanamine]
< 100 nM | CCC(N)c1cccc(-c2ccc3cnn(-c4cccc(C(N)=O)n4)c3c2)n1 (centres unmarked) [Example 269, 6-(6-(6-(1-aminopropyl)pyridin-2-yl)-1H-indazol-1-yl)picolinamide]
100 to 1000 nM | CC(N)c1cccc(-c2cc(C(=O)N(C)C)c3cnn(-c4cccc(C(F)(F)F)n4)c3c2)n1 (centres unmarked) [Example 58, 6-(6-(1-aminoethyl)pyridin-2-yl)-N,N-dimethyl-1-(6-(trifluoromethyl)pyridin-2-yl)-1H-indazole-4-carboxamide]
